ChEMBL document CHEMBL6109078, “Pyrylium derivatives as outer membrane permeabilizers against MDR gram-negative bacteria via multi-target mode of action” (Eur J Med Chem, 2025)
Calls of active or inactive are those of the source. No cut-off for these calls is given here.

What was measured:
Escherichia coli [1] = assay: Antibacterial activity against Escherichia coli ATCC 25922 assessed as inhibition of bacterial growth by measuring decrease in bacterial count at 6.25 to 50 microg/ml measured after 12 hrs by time-kill kinetics analysis; type: functional; details: dose 6.25-50 µg/ml
Acinetobacter baumannii [2] = assay: Synergistic antibacterial activity against multi-drug resistant Acinetobacter baumannii clinical isolate 14 assessed as fractional inhibitory concentration index in presence of gentamycin by checkerboard assay; type: functional
Acinetobacter baumannii [3] = assay: Antibacterial activity against multi-drug resistant Acinetobacter baumannii clinical isolate 14 assessed as inhibition of bacterial growth by CLSI protocol based method; type: functional
Acinetobacter baumannii [4] = assay: Antibacterial activity against multi-drug resistant Acinetobacter baumannii clinical isolate 5 assessed as inhibition of bacterial growth by CLSI protocol based method; type: functional
Escherichia coli [5] = assay: Synergistic antibacterial activity against Escherichia coli ATCC 25922 assessed as fractional inhibitory concentration index in presence of gentamycin by checkerboard assay; type: functional
Escherichia coli [6] = assay: Synergistic antibacterial activity against Escherichia coli ATCC 25922 assessed as inhibition of bacterial growth by measuring polymyxin B MIC by checkerboard assay; type: functional
Acinetobacter baumannii [7] = assay: Synergistic antibacterial activity against multi-drug resistant Acinetobacter baumannii clinical isolate 1 assessed as fractional inhibitory concentration index in presence of polymyxin B by checkerboard assay; type: functional
Acinetobacter baumannii [8] = assay: Synergistic antibacterial activity against multi-drug resistant Acinetobacter baumannii clinical isolate 5 assessed as fractional inhibitory concentration index in presence of polymyxin B by checkerboard assay; type: functional
Klebsiella pneumoniae [9] = assay: Synergistic antibacterial activity against Klebsiella pneumoniae assessed as inhibition of bacterial growth in presence of aminoglycoside by checkerboard assay; type: functional, organism-based
Escherichia coli [10] = assay: Synergistic antibacterial activity against Escherichia coli CG-4 expressing MCR-1 and NDM-1 assessed as fractional inhibitory concentration index in presence of gentamycin by checkerboard assay; type: functional
Klebsiella pneumoniae [11] = assay: Antibacterial activity against Klebsiella pneumoniae ATCC 700603 assessed as inhibition of bacterial growth by CLSI protocol based method; type: functional
Escherichia coli [12] = assay: Synergistic antibacterial activity against multi-drug resistant Escherichia coli clinical isolate 1 assessed as fractional inhibitory concentration index in presence of gentamycin by checkerboard assay; type: functional
Pseudomonas aeruginosa = assay: Antibacterial activity Pseudomonas aeruginosa ATCC 27853 assessed as inhibition of bacterial growth by CLSI protocol based method; type: functional
Escherichia coli [13] = assay: Synergistic antibacterial activity against Escherichia coli ATCC 35218 assessed as fractional inhibitory concentration index in presence of polymyxin B by checkerboard assay; type: functional
Escherichia coli [14] = assay: Antibacterial activity against Escherichia coli CG-4 expressing MCR-1 and NDM-1 assessed as inhibition of bacterial growth by CLSI protocol based method; type: functional
Acinetobacter baumannii [15] = assay: Synergistic antibacterial activity against Acinetobacter baumannii ATCC 19606 assessed as inhibition of bacterial growth by measuring polymyxin B MIC by checkerboard assay; type: functional
Acinetobacter baumannii [16] = assay: Synergistic antibacterial activity against multi-drug resistant Acinetobacter baumannii clinical isolate 5 assessed as fractional inhibitory concentration index in presence of gentamycin by checkerboard assay; type: functional
Acinetobacter baumannii [17] = assay: Synergistic antibacterial activity against Acinetobacter baumannii ATCC 19606 assessed as fractional inhibitory concentration index in presence of gentamycin by checkerboard assay; type: functional
Acinetobacter baumannii [18] = assay: Synergistic antibacterial activity against multi-drug resistant Acinetobacter baumannii clinical isolate 5 assessed as inhibition of bacterial growth in presence of polymyxin B by checkerboard assay; type: functional
Escherichia coli [19] = assay: Synergistic antibacterial activity against Escherichia coli CG-4 expressing MCR-1 and NDM-1 assessed as fractional inhibitory concentration index in presence of […] by checkerboard assay; type: functional
Escherichia coli [20] = assay: Synergistic antibacterial activity against Escherichia coli CG-4 expressing MCR-1 and NDM-1 assessed as inhibition of bacterial growth by measuring polymyxin B MIC by checkerboard assay; type: functional
Escherichia coli [21] = assay: Antibacterial activity against Escherichia coli ATCC 25922 assessed as inhibition of bacterial growth by CLSI protocol based method; type: functional
Acinetobacter baumannii [22] = assay: Synergistic antibacterial activity against multi-drug resistant Acinetobacter baumannii clinical isolate 1 assessed as fractional inhibitory concentration index in presence of amikacin by checkerboard assay; type: functional
Acinetobacter baumannii [23] = assay: Antibacterial activity against multi-drug resistant Acinetobacter baumannii clinical isolate 10 assessed as inhibition of bacterial growth by CLSI protocol based method; type: functional
Acinetobacter baumannii [24] = assay: Synergistic antibacterial activity against Acinetobacter baumannii ATCC 19606 assessed as fractional inhibitory concentration index in presence of polymyxin B by checkerboard assay; type: functional
Escherichia coli [25] = assay: Antibacterial activity against ESBL positive Escherichia coli ATCC 35218 assessed as inhibition of bacterial growth by CLSI protocol based method; type: functional
[26] = Binding affinity to His-tagged LptA (unknown origin) extracted from Escherichia coli BL21 (DE3) cells assessed as dissociation constant by BLI analysis; design: species or system Bacteria
Cell membrane [27] = assay: Induction of outer membrane damage in Escherichia coli ATCC 25922 assessed as local damage at 12.5 microg/ml incubated for 1 hrs by TEM analysis; details: dose 12.5 µg/ml
Escherichia coli [28] = assay: Antibacterial activity against Escherichia coli ATCC 25922 assessed as inhibition of bacterial growth by measuring fold change in MIC incubated for 16 to 18 hrs in presence of LPS; type: functional; details: time 16-18 hrs
Cell membrane [29] = assay: Induction of outer membrane damage in Escherichia coli ATCC 25922 assessed as local fractures at 12.5 microg/ml incubated for 1 hrs by TEM analysis; details: dose 12.5 µg/ml
[30] = Binding affinity to His-tagged LptC (unknown origin) extracted from Escherichia coli BL21 (DE3) cells assessed as dissociation constant by BLI analysis; design: species or system Bacteria
Cell membrane [31] = assay: Induction of outer membrane damage in Escherichia coli ATCC 25922 assessed as accumulation of membrane-like structures near inner membrane at 12.5 microg/ml incubated for 1 hrs by TEM analysis; details: dose 12.5 µg/ml
Escherichia coli [32] = assay: Induction of morphological changes in Escherichia coli ATCC 25922 assessed as appearance of filamentous bacterial cells at 6.25 microg/ml incubated for 1 hrs by optical microscopic analysis; type: functional, organism-based; details: dose 6.25 µg/ml
Escherichia coli [33] = assay: Antibacterial activity against Escherichia coli ATCC 25922 assessed as inhibition of bacterial growth by measuring fold increase in MIC incubated for 16 to 18 hrs in presence of Mg2+; type: functional; details: time 16-18 hrs
Escherichia coli [34] = assay: Antibacterial activity against Escherichia coli ATCC 25922 assessed as bacterial killing at 100 microg/ml measured within 4 to 12 hrs by time-kill kinetics analysis; type: functional; details: dose 100 µg/ml; time 4-12 hrs
Acinetobacter baumannii [35] = assay: Antibacterial activity against Acinetobacter baumannii ATCC 19606 assessed as bacterial killing at 100 microg/ml measured within 4 to 12 hrs by time-kill kinetics analysis; type: functional; details: dose 100 µg/ml; time 4-12 hrs
Cell membrane [36] = assay: Induction of outer membrane damage in Escherichia coli ATCC 25922 assessed as loose outer membrane with decrease in electron cloud density at 12.5 microg/ml incubated for 1 hrs by TEM analysis; details: dose 12.5 µg/ml
Escherichia coli [37] = assay: Induction of morphological changes in Escherichia coli ATCC 25922 assessed as appearance of longer bacterial cells at 6.25 microg/ml incubated for 1 hrs by optical microscopic analysis; type: functional, organism-based; details: dose 6.25 µg/ml
Escherichia coli [38] = assay: Antibacterial activity against Escherichia coli ATCC 25922 infected in Galleria mellonella larvae assessed as survival rate at 50 microg/ml measured 96 hrs post-inoculation relative to control; type: functional

| SMILES | Activity (Escherichia coli [1]) | fractional inhibitory concentration index (FICI) (Acinetobacter baumannii [2]) | MIC (Acinetobacter baumannii [3]) | MIC (Acinetobacter baumannii [4]) | fractional inhibitory concentration index (FICI) (Escherichia coli [5]) | MIC (Escherichia coli [6]) | fractional inhibitory concentration index (FICI) (Acinetobacter baumannii [7]) | fractional inhibitory concentration index (FICI) (Acinetobacter baumannii [8]) | Activity (Klebsiella pneumoniae [9]) | fractional inhibitory concentration index (FICI) (Escherichia coli [10]) | MIC (Klebsiella pneumoniae [11]) | fractional inhibitory concentration index (FICI) (Escherichia coli [12]) | MIC (Pseudomonas aeruginosa) | fractional inhibitory concentration index (FICI) (Escherichia coli [13]) | MIC (Escherichia coli [14]) | MIC (Acinetobacter baumannii [15]) | fractional inhibitory concentration index (FICI) (Acinetobacter baumannii [16]) | fractional inhibitory concentration index (FICI) (Acinetobacter baumannii [17]) | MIC (Acinetobacter baumannii [18]) | fractional inhibitory concentration index (FICI) (Escherichia coli [19]) | other results |
| --- | --- | --- | --- | --- | --- | --- | --- | --- | --- | --- | --- | --- | --- | --- | --- | --- | --- | --- | --- | --- | --- |
| CN1CCOc2cc(/C=C/c3cc(C(C)(C)C)[o+]c(C(C)(C)C)c3)ccc21.O=S(=O)([O-])C(F)(F)F | <6 log10CFU/ml | 0.125 | 100 µg/mL | 50 µg/mL | 0.125 | 7.8 10^-4 ug/ml | <0.126 | 0.25 | inactive | 0.125 | > 100 µg/mL | 0.125 | > 100 µg/mL | 0.312 | 25 µg/mL | 0.006 µg/mL | 0.125 | 0.125 | 6.25 µg/mL | 0.125 | MIC (Escherichia coli [20]): 0.031 µg/mL; MIC (Escherichia coli [21]): 50 µg/mL; fractional inhibitory concentration index (FICI) (Acinetobacter baumannii [22]): 0.125; MIC (Acinetobacter baumannii [23]): 50 µg/mL; fractional inhibitory concentration index (FICI) (Acinetobacter baumannii [24]): 0.25; MIC (Escherichia coli [25]): 25 µg/mL |
| CCN(CC)c1ccc(/C=C/c2cc(C(C)(C)C)[o+]c(C(C)(C)C)c2)cc1.O=S(=O)([O-])C(F)(F)F | <6 log10CFU/ml | 0.125 | 12.5 µg/mL | 12.5 µg/mL | 0.125 | 7.8 10^-4 ug/ml | <0.064 | 0.188 | inactive | 0.125 | > 100 µg/mL | 0.125 | > 100 µg/mL | 0.375 | 12.5 µg/mL | 0.006 µg/mL | 0.125 | 0.125 | 1.56 µg/mL | 0.125 | Kd [26]: 0.48 µM; Activity (Cell membrane [27]): Active; fold change (FC) (Escherichia coli [28]): 2; Activity (Cell membrane [29]): Active; Kd [30]: 0.49 µM; MIC (Escherichia coli [20]): 0.78 µg/mL; Activity (Cell membrane [31]): Active; MIC (Escherichia coli [21]): 6.25 µg/mL; Activity (Escherichia coli [32]): Active; fold change (FC) (Escherichia coli [33]): 2; Activity (Escherichia coli [34]): 100%; fractional inhibitory concentration index (FICI) (Acinetobacter baumannii [22]): 0.125; MIC (Acinetobacter baumannii [23]): 12.5 µg/mL; Activity (Acinetobacter baumannii [35]): 100%; Activity (Cell membrane [36]): Active; Activity (Escherichia coli [37]): Active; survival at 50 µg/mL (Escherichia coli [38]): 40%; fractional inhibitory concentration index (FICI) (Acinetobacter baumannii [24]): 0.188; MIC (Escherichia coli [25]): 6.25 µg/mL |
| CC(C)(C)c1cc(/C=C/c2ccc(N3CCCC3)cc2)cc(C(C)(C)C)[o+]1.O=S(=O)([O-])C(F)(F)F | <6 log10CFU/ml | 0.125 | 6.25 µg/mL | 6.25 µg/mL | 0.125 | 31.25 10^-4 ug/ml | <0.266 | 0.313 | inactive | 0.125 | > 100 µg/mL | 0.125 | > 100 µg/mL | 0.375 | 6.25 µg/mL | 0.002 µg/mL | 0.125 | 0.125 | 1.56 µg/mL | 0.125 | Kd [26]: 15 µM; Activity (Cell membrane [27]): Active; fold change (FC) (Escherichia coli [28]): 2; Activity (Cell membrane [29]): Active; Kd [30]: 63.7 µM; MIC (Escherichia coli [20]): 0.39 µg/mL; Activity (Cell membrane [31]): Active; MIC (Escherichia coli [21]): 12.5 µg/mL; Activity (Escherichia coli [32]): Active; fold change (FC) (Escherichia coli [33]): 2; Activity (Escherichia coli [34]): 100%; fractional inhibitory concentration index (FICI) (Acinetobacter baumannii [22]): 0.125; MIC (Acinetobacter baumannii [23]): 6.25 µg/mL; Activity (Acinetobacter baumannii [35]): 100%; Activity (Cell membrane [36]): Active; Activity (Escherichia coli [37]): Active; survival at 50 µg/mL (Escherichia coli [38]): 40%; fractional inhibitory concentration index (FICI) (Acinetobacter baumannii [24]): 0.156; MIC (Escherichia coli [25]): 6.25 µg/mL |
